The results in this text go back to paper PMC5762535, “Novel indazole-based small compounds enhance TRAIL-induced apoptosis by inhibiting the MKK7-TIPRL interaction in hepatocellular carcinoma” (Oncotarget, 2017).

One data set addresses T1, MKK7-TIPRL interaction (Homo sapiens, UniProt O14733+O75663).
T1 sequence (O14733 1-419): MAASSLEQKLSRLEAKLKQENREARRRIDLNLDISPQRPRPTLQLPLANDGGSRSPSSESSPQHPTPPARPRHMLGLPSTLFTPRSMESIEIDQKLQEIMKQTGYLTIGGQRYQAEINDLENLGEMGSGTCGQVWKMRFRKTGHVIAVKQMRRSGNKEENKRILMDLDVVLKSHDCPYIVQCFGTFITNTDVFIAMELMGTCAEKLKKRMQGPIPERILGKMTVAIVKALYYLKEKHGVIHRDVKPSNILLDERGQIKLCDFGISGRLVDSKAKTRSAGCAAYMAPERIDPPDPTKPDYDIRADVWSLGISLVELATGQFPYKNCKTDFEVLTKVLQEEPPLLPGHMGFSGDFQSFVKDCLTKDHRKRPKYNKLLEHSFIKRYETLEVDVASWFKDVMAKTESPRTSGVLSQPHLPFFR
T1 sequence (O75663 1-272): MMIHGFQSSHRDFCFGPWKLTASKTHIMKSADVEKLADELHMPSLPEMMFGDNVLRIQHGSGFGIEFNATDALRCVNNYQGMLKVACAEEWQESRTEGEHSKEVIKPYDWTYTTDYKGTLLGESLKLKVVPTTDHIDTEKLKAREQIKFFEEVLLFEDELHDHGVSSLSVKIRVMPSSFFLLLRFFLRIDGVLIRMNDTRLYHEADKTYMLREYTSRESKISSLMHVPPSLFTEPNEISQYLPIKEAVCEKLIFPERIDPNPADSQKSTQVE
The data set is described as follows: GST pull-down assay of MKK7-TIPRL in 293T cells. The data set is classed as cell-based. As to conditions: 10 μM TRT-0029 or 20 μM TRT-0173, 24 h. As to the method: The full-length cDNAs of human TIPRL and MKK7 were subcloned into the pCGN vector (W. Herr, Cold Spring Harbor Laboratory) and the pEBG vector containing a GST tag to construct the HA-tagged and the GST-tagged plasmids, respectively. 293T cells were transfected with expression vector constructs using the TurboFect Transfection Reagent (Thermo Fisher Scientific, Lafayette, USA) and then were lysed in RIPA buffer (50 mM Tris-HCl, 150 mM NaCl, 1% Triton™ X-100, 0.1% SDS, 1 mM EDTA, 1 mM Na3VO4, and 1 mM NaF) containing complete protease inhibitor cocktail (Roche Applied Science, Indianapolis, USA). Whole-cell extracts were incubated with Glutathione Sepharose 4B (GE Healthcare, Uppsala, Sweden), and the eluted GST-tagged proteins were subjected to Western blotting using the indicated antibodies.

In another data set the test system is HepG2 cells. Nature of the data set: MTT cell viability assay, HepG2 cells. The data set is classed as cell-based, human. The note with it: 10 µM TRT-0029 or 20 µM TRT-0173 plus TRAIL 100 ng/ml, 24 h. Here is the method: (§1) Cell viability was assessed using a 3-(4,5-dimethylthiazol-2-yl)-2,5-diphenyltetrazolium bromide (MTT, Sigma-Aldrich, St. Louis, USA) assay. The cells were seeded at a density of 1 × 10^4 cells per well and treated with the lead compounds and/or TRAIL. After 24 or 48 h, MTT (2 mg/ml) was added to each well, and the absorbance was measured using a microplate reader (Bio-Rad, Hercules, USA) at 570 nm. The cell viability was calculated as the percentage of viable cells in the drug-treated group versus the untreated control using the following equation: cell viability (%) = [OD (drug)-OD (blank)]/[OD (control)-OD (blank)] × 100.
A general note: Tetrazolium assays rely on reduction of a dye to a coloured formazan, in cell work by metabolically active cells.

A further data set deals with caspase-3. Nature of the data set: Caspase 3 activity assay in Huh7 cells. The class given is cell-based, human. As to conditions: for Caspase 3 activity Compound + TRAIL/Compound: each compound at its working concentration and time of the table. Here is the method: The caspase 3 activity was measured using a caspase-3 luminescent assay kit (Promega, Madison, WI, USA), according to the manufacturer's instructions, and a luminescence plate reader (Molecular Devices Co., Sunnyvale, USA).

The next data set can be described thus: Pharmacokinetics in rats. The data set is classed as in vivo, Sprague-Dawley rats. As to conditions: rat; for AUC: male, Sprague-Dawley, plasma, after 24 h; for oral availability: 5 mg/kg i.v. and p.o. Here is the method:
Male Sprague-Dawley rats anesthetized with ketamine were cannulated with polyethylene tubing in the femoral vein. A solution of lead compound (TRT-0029 or TRT-0173) was prepared by dissolving the compounds in a mixture of dimethyl sulfoxide (DMSO)/ polyethylene glycol 400 (PEG 400)/ distilled water (0.5: 4: 5.5), and was administered to rats by a bolus injection in the femoral vein. Blood samples were collected via the femoral vein 0, 2, 10, and 30 min, as well as 1, 2, 4, 6, 8, and 24 h after intravenous administration. For oral administration, blood was collected 0.25, 0.5, 1, 2, 4, 6, 8, and 24 h after treatment. The plasma fractions were prepared by centrifugation and were stored at −70°C before the liquid chromatography-tandem mass spectrometry (LC/MS/MS) analysis. The concentrations of target compound in the plasma were measured using LC-MS/MS (4000 QTRAP, AB SCIEX, Foster City, CA) in multiple reaction monitoring (MRM) mode. The PK parameters were determined with non-compartmental methods using Phoenix WinNolin (Pharsight, Mountain View, CA). The area under the plasma concentration-time curve (AUC) was calculated using the trapezoidal rule extrapolated to infinity. The terminal elimination half-life (t1/2), and the systemic clearance (CL) were obtained. The peak plasma concentration (Cmax) after oral administration was obtained by visual inspection of the plasma concentration-time plot of each rat.

For a further data set, the system named is Huh7 cells. The data set is described as follows: MTT cell viability assay, Huh7 cells. The data set is classed as cell-based, human. As to conditions: for reduction of cell viability of Huh7 cells by co-treatment with TRAIL, compared to TRAIL alone: 10 μM TRT-0029 or 20 μM TRT-0173 plus TRAIL; for reduction of cell viability of Huh7 cells by co-treatment with TRAIL, compared to TRAIL alone / effective working concentration: 24 h; for viability at 10 µM: Homo sapiens, Huh-7, Huh7, MTT, 24 hrs, with TRAIL, Supplementary Table 3, read-out: Cell viability assay Compound + TRAIL; for effective working concentration: Huh7 cells, various doses with and without TRAIL (100 ng/ml). As to the method:
as §1

Data set [1] can be described thus: MTT cell viability assay, Huh7 cells. The note with it: human, Huh7 cells; Huh7, MTT, 10 µM, 24 hrs, without TRAIL; Supplementary Table 3; read-out: Cell viability assay Compound only. The class given is cell-based, human. As to the method:
as §1

The next data set relates to caspase-3 and PARP. Nature of the data set: Western blot of cleaved caspase-3 and PARP in Huh7 cells. The note with it: lead compounds co-treated with TRAIL 100 ng/ml, TRAIL tested alone. The data set is classed as cell-based, human. Here is the method: The cells were lysed in lysis buffer (50 mM Tris-HCl, pH 7.4, 150 mM NaCl, 1% Triton™ X-100, 0.1% SDS, 1 mM EDTA, 1 mM Na3VO4, 1 mM NaF, and protease inhibitor cocktail) and clarified by centrifugation at 14,000×g for 20 min at 4°C. The protein samples were then subjected to Western blotting with the indicated antibodies.
A general note: In western blotting, separated proteins are transferred to a membrane and probed.

Another data set deals with Huh7 tumor xenografts. Nature of the data set: In vivo Huh7 xenograft assay. Also on record: species or system BALB/c nude mice. The note with it: for tumor volume / tumor growth at 11 days, compound + TRAIL compared with compound alone: compound 30 mg/kg i.v. plus TRAIL 2.5 mg/kg i.p. daily; for reduction of average tumor mass, lead compound + TRAIL: compound 30 mg/kg i.v. plus TRAIL 2.5 mg/kg i.p. daily for 11 days, versus vehicle control. From the text: Five-week-old female BALB/c nude mice were purchased from SLC Japan and were maintained in accordance with the guidelines of the Institutional Review Committee for Animal Care and Use of the Korea Research Institute of Bioscience and Biotechnology. Protocol approval was obtained from the same committee.
Huh7 cells were harvested and subcutaneously injected (5 × 10^6 cells/mouse) into nude mice (N = 6/group for TRT-0173 or TRT-0029 experiments). When the tumor volume reached ~100 mm^3, the mice were divided into four groups and treated with vehicle, TRAIL (2.5 mg/kg, intraperitoneal), lead compound (TRT-0029 or TRT-0173, 30 mg/kg, intravenously), or lead compound (30 mg/kg, intravenously) combined with TRAIL (2.5 mg/kg, intraperitoneal) daily for 11 days (11 treatments in total). The tumor volumes were measured every 2 days for 11 days after treatment, and tumor volume was calculated according to the following equation: V (mm^3) = width^2 (mm^2) × length (mm)/2. Body weight and tumor mass were measured 11 days after treatment.

The mark [2] stands for this setting: iv, i.v. 5 mg/kg, read-out: AUC (i.v.).
[3] abbreviates: po, p.o. 5 mg/kg, read-out: AUC (p.o.).

Each structure is given as a SMILES string. Read-outs that look alike come from different tables or passages of the source.

Take `CC(=O)c1cc(-n2ncc3cc(NS(=O)(=O)c4ccccc4)ccc32)c(Cl)cc1Cl` [TRT-0029]: on MKK7-TIPRL interaction, the “interaction between MKK7 and TIPRL in GST pull-down assay, compared with untreated cells” value was “significantly decreased the interaction”. The “decrease of HepG2 viability by co-treatment with TRAIL” value with HepG2 cells was 36%. The “activity of caspase-3, co-treatment with TRAIL compared to compound alone or TRAIL alone” value with caspase-3 (Huh7, 24 h) is listed as “significantly increased”. Besides, in the data set with caspase-3, the “Caspase 3 activity Compound + TRAIL/Compound” value is given as 2.20 ratio. Further, in “Pharmacokinetics in rats” (setting [2]), the AUC worked out at 10000 ng·h/mL. In the data set “Pharmacokinetics in rats” (setting [3]), the AUC came out at 1220 ng·h/mL. The same compound showed an oral availability in “Pharmacokinetics in rats” of 11%. Besides, in the data set with Huh7 cells, the “reduction of cell viability of Huh7 cells by co-treatment with TRAIL, compared to TRAIL alone” value is given as around 90%; the viability at 10 µM stood at 11%; the effective working concentration is 10 µM. Also, the viability at 24 h, 10 µM in data set [1] is 69%. The “apoptosis signals (cleaved caspase-3, PARP) by Western blotting” value in the data set on caspase-3 and PARP is given as “effectively activated apoptosis signals”. Also, in the data set with Huh7 tumor xenografts, the “tumor volume / tumor growth at 11 days, compound + TRAIL compared with compound alone” value is “significantly reduced” and the “reduction of average tumor mass, lead compound + TRAIL” value came out at 64.5%.

With `COc1ccc(S(=O)(=O)Nc2ccc3c(cnn3-c3ccc(F)cc3)c2)cc1` [TRT-0173], at MKK7-TIPRL interaction, the “interaction between MKK7 and TIPRL in GST pull-down assay, compared with untreated cells” value was “significantly decreased the interaction”. For the same compound, the “decrease of HepG2 viability by co-treatment with TRAIL” value with HepG2 cells amounted to 53%. The “Caspase 3 activity Compound + TRAIL/Compound” value in the data set on caspase-3 is 2.10 ratio. Further, the AUC in “Pharmacokinetics in rats” (setting [2]) was 4270 ng·h/mL. Further, in “Pharmacokinetics in rats” (setting [3]), the AUC was 1150 ng·h/mL. Also, the oral availability in the data set “Pharmacokinetics in rats” is listed as 26.8%. In the data set with Huh7 cells, the “reduction of cell viability of Huh7 cells by co-treatment with TRAIL, compared to TRAIL alone” value is around 90%; the viability at 10 µM came to 7%; the effective working concentration is 20 µM. Moreover, the viability at 24 h, 10 µM in data set [1] turned out to be 53%. Besides, the “apoptosis signals (cleaved caspase-3, PARP) by Western blotting” value in the data set on caspase-3 and PARP is on record as “activated apoptosis signals”. Moreover, in the data set with Huh7 tumor xenografts, the “tumor volume / tumor growth at 11 days, compound + TRAIL compared with compound alone” value was “moderately inhibited tumor growth” and the “reduction of average tumor mass, lead compound + TRAIL” value is listed as 42.2%.

By AUC is commonly meant concentration integrated over time. What is called viability is a read-out of living cells in per cent, often relative to untreated cells.
